Where two headings read alike, the source gives them in different places.
Legend:
Assay type in all cases: cell-based
[1] = target: T1, NOX4 (Homo sapiens, UniProt Q9NPH5); assay: NOX4-dependent H2O2 production, Amplex Red assay in reconstituted HEK293 cells; details: for IC50 / IC50 toward NOX4: exposure for 30 min
T1 construct: expressed in transfected cells; host or cells: HEK293
T1 sequence (Q9NPH5 1-578): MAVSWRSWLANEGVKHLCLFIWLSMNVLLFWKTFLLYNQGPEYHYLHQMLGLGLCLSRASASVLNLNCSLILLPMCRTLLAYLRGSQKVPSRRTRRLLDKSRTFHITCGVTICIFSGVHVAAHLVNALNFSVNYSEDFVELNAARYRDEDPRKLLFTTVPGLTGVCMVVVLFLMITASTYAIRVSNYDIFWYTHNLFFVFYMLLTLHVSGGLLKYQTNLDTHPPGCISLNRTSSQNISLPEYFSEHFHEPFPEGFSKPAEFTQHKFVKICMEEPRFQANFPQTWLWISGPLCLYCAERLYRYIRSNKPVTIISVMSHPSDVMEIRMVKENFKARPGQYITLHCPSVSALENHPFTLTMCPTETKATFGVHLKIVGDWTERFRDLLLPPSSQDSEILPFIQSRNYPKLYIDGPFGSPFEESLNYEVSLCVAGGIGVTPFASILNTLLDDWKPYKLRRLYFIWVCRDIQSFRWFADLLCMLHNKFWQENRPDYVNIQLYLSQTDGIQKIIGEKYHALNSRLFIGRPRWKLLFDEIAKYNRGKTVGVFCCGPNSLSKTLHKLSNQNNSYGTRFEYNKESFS
T1 sequence (P13498 2-195 partner limits assumed): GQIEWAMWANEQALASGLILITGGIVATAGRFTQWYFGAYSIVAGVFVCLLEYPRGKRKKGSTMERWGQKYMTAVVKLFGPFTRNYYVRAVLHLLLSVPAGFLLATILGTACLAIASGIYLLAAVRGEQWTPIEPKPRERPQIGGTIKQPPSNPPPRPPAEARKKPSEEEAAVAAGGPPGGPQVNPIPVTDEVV
Procedure: (§1) H2O2 was measured by Amplex Red assay to determine NOX4 or Duox2 activity in fully reconstituted HEK293 cells. The method conducted was similar to the approach disclosed in Jaquet et al in Brit J. Pharmacology 164: 507-520, 2011 using somewhat different cell models for the NOX isoforms and we studied Duox2 in our own cell model.

[2] = target: T2, NOX1/A1/O1 (Homo sapiens, UniProt Q9Y5S8); assay: NOX1-dependent ROS production, luminescence assay for O2.- in HEK293 cells expressing the NOX1 complex; details: for IC50 / IC50 toward NOX1: exposure for 30 min
T2 construct: expressed in transfected cells; host or cells: HEK293

[3] = target: T3, NOX2 (Homo sapiens, UniProt P04839); assay: NOX2-dependent ROS production, luminescence assay for O2.- in differentiated HL-60 cells; details: exposure for 30 min
T3 construct: fully differentiated HL-60 cells expressing active NOX2; endogenous in cells; host or cells: differentiated HL-60

[4] = system: HT-29 human colon cancer cells; assay: Clonogenic assay, HT-29 cells
Procedure: Several iodonium analog compounds were analyzed for inhibition of HT-29 growth using a clonogenic assay performed as described in Doroshow et al Biochem. Biophys. Res. Commun. 135: 330-335, 1986.

[5] = target: T4, NOX5 (Homo sapiens, UniProt Q96PH1); assay: NOX5-dependent ROS production, luminescence assay for O2.- in UACC257 melanoma cells; details: exposure for 30 min
T4 sequence (Q96PH1 1-765): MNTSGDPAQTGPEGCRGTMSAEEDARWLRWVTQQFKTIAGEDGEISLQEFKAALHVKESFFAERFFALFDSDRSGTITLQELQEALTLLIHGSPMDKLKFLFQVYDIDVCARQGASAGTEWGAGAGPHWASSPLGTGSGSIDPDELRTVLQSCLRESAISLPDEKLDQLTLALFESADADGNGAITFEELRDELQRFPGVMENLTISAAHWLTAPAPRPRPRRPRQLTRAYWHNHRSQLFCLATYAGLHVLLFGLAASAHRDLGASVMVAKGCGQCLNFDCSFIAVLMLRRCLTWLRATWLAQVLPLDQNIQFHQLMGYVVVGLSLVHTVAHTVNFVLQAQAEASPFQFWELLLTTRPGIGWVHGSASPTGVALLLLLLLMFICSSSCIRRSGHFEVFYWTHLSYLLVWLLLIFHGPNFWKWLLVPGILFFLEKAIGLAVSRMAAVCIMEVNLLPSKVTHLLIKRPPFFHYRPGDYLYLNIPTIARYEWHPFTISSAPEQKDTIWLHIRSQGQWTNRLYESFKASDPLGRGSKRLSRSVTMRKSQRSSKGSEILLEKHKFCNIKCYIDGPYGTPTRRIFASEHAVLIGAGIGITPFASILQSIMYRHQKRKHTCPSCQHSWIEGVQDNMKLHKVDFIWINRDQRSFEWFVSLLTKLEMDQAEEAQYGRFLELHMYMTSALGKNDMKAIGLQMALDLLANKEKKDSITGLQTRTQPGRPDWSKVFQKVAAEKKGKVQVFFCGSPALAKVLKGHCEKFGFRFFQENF

[6] = system: ROS production in HT-29 human colon cancer cells; assay: ROS production in HT-29 cells (chemiluminescence / DCF analytical cytometry)
[7] = target: DUOX2/A2 (Homo sapiens, UniProt Q9NRD8); assay: DUOX2-dependent H2O2 production, Amplex Red assay in reconstituted HEK293 cells
Procedure: as §1

[8] = system: HT-29 human colon cancer cells; assay: HT-29 cell cycle progression; details: for G1 (%) / G2 (%) / S phase (%): 24 hours
Procedure: Several iodonium analog compounds were analyzed for effect on HT-29 cell cycle progression.

[9] = system: HT-29 human colon cancer cells; assay: Growth inhibition of HT-29 cells by MTT assay; details: for IC50: read-out: IC50, HT-29 human colon cancer cell growth
Procedure: The compounds were analyzed for growth inhibition of HT-29 human colon cancer cells by MTT assay: 48 hr, drug exposures over several orders of concentration. The MTT assay was performed as described in Wu et al J. Immunology 190: 1859-1872, 2013.

[10] = system: NOX1 mRNA expression; assay: NOX1 expression in HT-29 cells by quantitative RT-PCR; details: HT-29 human colon cancer cells
[11] = 3-5 independent experiments, read-out: IC50 ± SE, NOX4 HEK293
[12] = 3-5 independent experiments, read-out: IC50 ± SE, NOX1/A1/O1 HEK 293
[13] = 3-5 independent experiments, read-out: IC50 ± SE, NOX2 HL-60
[14] = Homo sapiens, HT-29, 6 h, read-out: IC50 (±SE) clonogenic survival, 6 hrs drug exposure, 6 hrs exposure
[15] = 3-5 independent experiments, read-out: IC50 ± SE, NOX5 UACC-257
[16] = Homo sapiens, HT-29, 2 h, read-out: IC50 (±SE) clonogenic survival, 2 hrs drug exposure, 2 hrs exposure
[17] = Homo sapiens, HT-29, 240 h, read-out: IC50 clonogenic survival, 10 days drug exposure, 10 days exposure
[18] = 3-5 independent experiments, read-out: IC50 ± SE, DUOX2/A2 HEK 293

Chain of DUOX2/A2 (Q9NRD8 26-1548): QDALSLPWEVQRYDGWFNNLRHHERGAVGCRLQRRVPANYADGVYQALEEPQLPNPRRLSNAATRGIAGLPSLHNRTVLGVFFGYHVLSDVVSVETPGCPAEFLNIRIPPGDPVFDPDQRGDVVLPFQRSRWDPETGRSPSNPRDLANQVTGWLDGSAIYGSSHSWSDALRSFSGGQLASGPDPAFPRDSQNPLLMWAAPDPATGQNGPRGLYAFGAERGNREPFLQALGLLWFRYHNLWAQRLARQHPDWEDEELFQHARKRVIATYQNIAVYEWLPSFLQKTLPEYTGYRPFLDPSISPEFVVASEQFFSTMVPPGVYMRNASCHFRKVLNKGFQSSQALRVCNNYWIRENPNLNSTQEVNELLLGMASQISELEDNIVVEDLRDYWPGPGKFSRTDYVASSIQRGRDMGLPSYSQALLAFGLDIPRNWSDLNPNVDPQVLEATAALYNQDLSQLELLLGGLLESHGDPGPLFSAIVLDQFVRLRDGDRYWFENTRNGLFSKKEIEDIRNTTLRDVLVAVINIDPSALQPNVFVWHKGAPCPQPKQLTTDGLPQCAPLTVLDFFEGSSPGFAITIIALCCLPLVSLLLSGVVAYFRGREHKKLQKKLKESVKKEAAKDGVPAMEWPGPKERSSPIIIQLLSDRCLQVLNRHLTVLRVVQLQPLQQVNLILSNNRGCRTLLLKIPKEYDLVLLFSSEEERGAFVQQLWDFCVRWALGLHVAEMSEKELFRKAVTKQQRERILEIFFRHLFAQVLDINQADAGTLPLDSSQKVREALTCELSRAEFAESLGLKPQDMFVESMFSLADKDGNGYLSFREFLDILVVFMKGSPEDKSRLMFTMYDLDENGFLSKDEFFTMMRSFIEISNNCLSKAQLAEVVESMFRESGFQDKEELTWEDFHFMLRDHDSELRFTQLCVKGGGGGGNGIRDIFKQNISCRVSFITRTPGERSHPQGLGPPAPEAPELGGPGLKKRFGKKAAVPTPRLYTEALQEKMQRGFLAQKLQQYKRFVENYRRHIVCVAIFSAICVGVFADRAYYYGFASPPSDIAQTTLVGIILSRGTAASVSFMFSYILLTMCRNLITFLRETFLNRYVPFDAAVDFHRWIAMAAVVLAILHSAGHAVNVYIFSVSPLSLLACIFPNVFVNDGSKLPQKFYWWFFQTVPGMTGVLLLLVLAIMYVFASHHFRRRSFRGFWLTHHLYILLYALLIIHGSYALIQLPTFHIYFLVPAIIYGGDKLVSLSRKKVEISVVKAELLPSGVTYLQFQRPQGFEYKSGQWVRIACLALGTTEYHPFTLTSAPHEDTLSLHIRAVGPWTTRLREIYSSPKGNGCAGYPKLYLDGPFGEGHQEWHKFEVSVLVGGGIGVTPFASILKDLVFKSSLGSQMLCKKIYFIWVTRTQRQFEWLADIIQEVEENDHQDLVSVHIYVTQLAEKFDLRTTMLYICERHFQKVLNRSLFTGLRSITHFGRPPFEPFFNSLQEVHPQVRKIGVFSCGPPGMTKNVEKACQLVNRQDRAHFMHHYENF
Chain of DUOX2/A2 (Q1HG44 whole entry partner): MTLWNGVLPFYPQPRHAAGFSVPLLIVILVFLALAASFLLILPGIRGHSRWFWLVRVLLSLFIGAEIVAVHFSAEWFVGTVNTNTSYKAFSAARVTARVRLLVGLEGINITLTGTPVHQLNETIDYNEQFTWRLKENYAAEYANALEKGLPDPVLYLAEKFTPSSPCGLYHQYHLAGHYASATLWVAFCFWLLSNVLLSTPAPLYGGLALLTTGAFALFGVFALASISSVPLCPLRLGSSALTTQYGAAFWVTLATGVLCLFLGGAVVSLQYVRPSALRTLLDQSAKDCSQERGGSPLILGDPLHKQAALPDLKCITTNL

[Cl-].c1csc([I+]c2cccs2)c1 [Compound 1, di-2-thienyliodonium chloride, reference compound]
IC50 [1, 11]: 32.3 ± 13.8 µM | IC50 [2, 12]: 3.41 ± 1.6 µM | IC50 [3, 13]: 1.5 ± 1.11 µM | IC50 clonogenic survival, 2 hrs drug exposure (result in words) ([4]; 2 hrs exposure): No Inhibition | IC50 [4, 14]: 113 ± 92.3 µM | IC50 [5, 15]: 3.78 ± 2.14 µM

O=[N+]([O-])c1ccc2c(c1)[I+]c1cc([N+](=O)[O-])ccc1-2.[Br-] [Compound 15, Dibenziodolium, 3,7-dinitro-, bromide]
IC50 [1, 11]: 0.139 ± 0.143 µM | IC50 toward NOX4 [1]: low nM | IC50 [2, 12]: 0.357 ± 0.268 µM | IC50 toward NOX1 [2]: low nM | ROS production in HT-29 cells ([6]; treatment for 24 hr with 100 nM): significantly decreased | IC50 [3, 13]: 0.31 ± 0.053 µM | IC50 toward NOX2 [3]: low nM | cytotoxic or cytostatic character [4]: cytotoxic | exposure required to inhibit growth / cell reproduction [4]: only a short exposure at nM concentrations | IC50 [4, 16]: 0.18 ± 0.157 µM | IC50 [4, 14]: 0.116 ± 0.108 µM | IC50 [4, 17]: < 0.01 µM | IC50 [5, 15]: 0.208 ± 0.129 µM | IC50 toward NOX5 [5]: low nM | potency for inhibition of DUOX2 compared with parent compound (DPI) [7]: at least a log more potent | IC50 [7, 18]: 0.225 ± 0.024 µM | effect on cell cycle progression [8]: major block in cell cycle progression in S and G2 phases | G1 (%) ([8]; 250 nM): 23.9% | G2 (%) ([8]; 250 nM): 47.4% | S phase (%) ([8]; 250 nM): 28.7% | G1 (%) ([8]; 500 nM): 16.6% | G2 (%) ([8]; 500 nM): 25.2% | S phase (%) ([8]; 500 nM): 58.2% | IC50 ([9]; Homo sapiens, HT-29, 48 h): 0.202 µM

O=[N+]([O-])c1cccc2c1-c1c(cccc1[N+](=O)[O-])[I+]2.[Br-] [Compound 49, 1,9-dinitrodibenzo[b,d]iodolium bromide]
IC50 ([1]; IC50 ± SE, NOX4 HEK293, 3-5 independent experiments): 5.53 ± 2.68 µM | IC50 toward NOX4 [1]: much higher | IC50 ([2]; IC50 ± SE, NOX1/A1/O1 HEK 293, 3-5 independent experiments): 1.02 ± 0.361 µM | IC50 toward NOX1 [2]: much higher | IC50 ([3]; IC50 ± SE, NOX2 HL-60, 3-5 independent experiments): 1.47 ± 0.308 µM | IC50 toward NOX2 [3]: much higher | IC50 ([5]; IC50 ± SE, NOX5 UACC-257, 3-5 independent experiments): 0.229 ± 0.123 µM | IC50 toward NOX5 [5]: submicromolar | IC50 [7]: 0.773 ± 0.362 µM | inhibition of DUOX2, as worded in text [7]: submicromolar | potency for inhibition of DUOX2 compared with parent compound (DPI) [7]: at least a log more potent | Growth inhibition of NOX1-containing colon cancer cells versus the other analogs ([9]; even at higher concentrations): much less

CN(C)Cc1ccc2c(c1)[I+]c1cc(CN(C)C)ccc1-2.[I-] [Compound 24, Dibenziodolium, 3,7-bis[(dimethylamino)methyl]-, iodide]
IC50 [1, 11]: 35.4 ± 42.7 µM | IC50 [2, 12]: 2.52 ± 2.41 µM | inhibition of ROS production ([6]; HT-29 human colon cancer cells): no significant inhibition | IC50 [3, 13]: 4.38 ± 0.999 µM | IC50 [5, 15]: 2.09 ± 0.903 µM | inhibition of NOX1 expression [10]: no significant inhibition | IC50 ([9]; Homo sapiens, HT-29, 48 h): 0.087 µM

COC(=O)c1ccc2c(c1)[I+]c1ccccc1-2.Cc1ccc(S(=O)(=O)[O-])cc1 [Compound 21, Dibenz[b,d]iodolium, 3-(methoxycarbonyl)-, salt with 4-methyl-benzenesulfonic acid (1:1)]
potency as inhibitor of NOX4 compared with DPI [1]: more potent | IC50 [1, 11]: 0.127 ± 0.11 µM | IC50 toward NOX4 [1]: low nM | IC50 [2, 12]: 0.249 ± 0.116 µM | IC50 toward NOX1 [2]: low nM | ROS production in HT-29 cells ([6]; treatment for 24 hr with 10 nM): significantly decreased | IC50 [3, 13]: 0.071 ± 0.015 µM | IC50 toward NOX2 [3]: low nM | IC50 ([4]; read-out: IC50 (±SE) clonogenic survival, 2 hrs drug exposure, 2 hrs exposure): ~7 µM | IC50 ([4]; read-out: IC50 (±SE) clonogenic survival, 6 hrs drug exposure, 6 hrs exposure): 1.3 ± 0.3 µM | IC50 [5, 15]: 0.055 ± 0.02 µM | IC50 toward NOX5 [5]: low nM | IC50 [7, 18]: 1.99 ± 1.69 µM | IC50 ([9]; 48 hr drug exposure): 0.148 µM

Brc1ccc2c(c1)[I+]c1cc(Br)ccc1-2.[Br-] [Compound 16, Dibenziodolium, 3,7-dibromo-, bromide]
IC50 [1, 11]: 0.161 ± 0.153 µM | IC50 toward NOX4 [1]: low nM | potency as inhibitor of NOX1 compared with DPI [2]: more potent | IC50 [2, 12]: 0.07 ± 0.057 µM | IC50 toward NOX1 [2]: low nM | ROS production in HT-29 cells ([6]; treatment for 24 hr with 10 nM): significantly decreased | IC50 [3, 13]: 0.127 ± 0.02 µM | IC50 toward NOX2 [3]: low nM | exposure required to inhibit growth / cell reproduction [4]: intermediate | IC50 [4, 16]: 1.2 ± 1.1 µM | IC50 [4, 14]: 0.536 ± 0.635 µM | IC50 [4, 17]: < 0.01 µM | IC50 [5, 15]: 0.044 ± 0.021 µM | IC50 toward NOX5 [5]: low nM | IC50 [7, 18]: 4.14 ± 1.72 µM | G1 (%) ([8]; 250 nM): 64.5% | G2 (%) ([8]; 250 nM): 7.9% | S phase (%) ([8]; 250 nM): 28.1% | G1 (%) ([8]; 500 nM): 57.2% | G2 (%) ([8]; 500 nM): 6.5% | S phase (%) ([8]; 500 nM): 36.2% | IC50 ([9]; Homo sapiens, HT-29, 48 h): 0.05 µM

— patent US10131659B2, “Iodonium analogs as inhibitors of NADPH oxidases and other flavin dehydrogenases; formulations thereof; and uses thereof” (priority 2014, dated 2018)
